The target in one assay is T1, HiBit-BRM fusion protein (Homo sapiens, UniProt P51531).
T1 construct: expressed in transfected cells
Put plainly: HiBiT-BRM cell-based degradation assay (Nano-Glo HiBiT Lytic Detection, 24 h). Particulars: stable HeLa cell line expressing HiBiT-BRM, top dose 30 μM. In a few lines: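 HiBiT-tagged BRM levels in a stable HeLa line are measured after one day of compound treatment (up to 30 μM final, duplicate 10-point curves) by adding LgBiT lytic reagent and reading bioluminescence; values are expressed relative to vehicle and a 2 μM degrader control.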

The target of assay [1] is T2, HiBit-BRG1 fusion protein (Homo sapiens, UniProt P51532).
T2 construct: expressed in transfected cells
T2 sequence (P51532 whole entry, the tested form may be a part): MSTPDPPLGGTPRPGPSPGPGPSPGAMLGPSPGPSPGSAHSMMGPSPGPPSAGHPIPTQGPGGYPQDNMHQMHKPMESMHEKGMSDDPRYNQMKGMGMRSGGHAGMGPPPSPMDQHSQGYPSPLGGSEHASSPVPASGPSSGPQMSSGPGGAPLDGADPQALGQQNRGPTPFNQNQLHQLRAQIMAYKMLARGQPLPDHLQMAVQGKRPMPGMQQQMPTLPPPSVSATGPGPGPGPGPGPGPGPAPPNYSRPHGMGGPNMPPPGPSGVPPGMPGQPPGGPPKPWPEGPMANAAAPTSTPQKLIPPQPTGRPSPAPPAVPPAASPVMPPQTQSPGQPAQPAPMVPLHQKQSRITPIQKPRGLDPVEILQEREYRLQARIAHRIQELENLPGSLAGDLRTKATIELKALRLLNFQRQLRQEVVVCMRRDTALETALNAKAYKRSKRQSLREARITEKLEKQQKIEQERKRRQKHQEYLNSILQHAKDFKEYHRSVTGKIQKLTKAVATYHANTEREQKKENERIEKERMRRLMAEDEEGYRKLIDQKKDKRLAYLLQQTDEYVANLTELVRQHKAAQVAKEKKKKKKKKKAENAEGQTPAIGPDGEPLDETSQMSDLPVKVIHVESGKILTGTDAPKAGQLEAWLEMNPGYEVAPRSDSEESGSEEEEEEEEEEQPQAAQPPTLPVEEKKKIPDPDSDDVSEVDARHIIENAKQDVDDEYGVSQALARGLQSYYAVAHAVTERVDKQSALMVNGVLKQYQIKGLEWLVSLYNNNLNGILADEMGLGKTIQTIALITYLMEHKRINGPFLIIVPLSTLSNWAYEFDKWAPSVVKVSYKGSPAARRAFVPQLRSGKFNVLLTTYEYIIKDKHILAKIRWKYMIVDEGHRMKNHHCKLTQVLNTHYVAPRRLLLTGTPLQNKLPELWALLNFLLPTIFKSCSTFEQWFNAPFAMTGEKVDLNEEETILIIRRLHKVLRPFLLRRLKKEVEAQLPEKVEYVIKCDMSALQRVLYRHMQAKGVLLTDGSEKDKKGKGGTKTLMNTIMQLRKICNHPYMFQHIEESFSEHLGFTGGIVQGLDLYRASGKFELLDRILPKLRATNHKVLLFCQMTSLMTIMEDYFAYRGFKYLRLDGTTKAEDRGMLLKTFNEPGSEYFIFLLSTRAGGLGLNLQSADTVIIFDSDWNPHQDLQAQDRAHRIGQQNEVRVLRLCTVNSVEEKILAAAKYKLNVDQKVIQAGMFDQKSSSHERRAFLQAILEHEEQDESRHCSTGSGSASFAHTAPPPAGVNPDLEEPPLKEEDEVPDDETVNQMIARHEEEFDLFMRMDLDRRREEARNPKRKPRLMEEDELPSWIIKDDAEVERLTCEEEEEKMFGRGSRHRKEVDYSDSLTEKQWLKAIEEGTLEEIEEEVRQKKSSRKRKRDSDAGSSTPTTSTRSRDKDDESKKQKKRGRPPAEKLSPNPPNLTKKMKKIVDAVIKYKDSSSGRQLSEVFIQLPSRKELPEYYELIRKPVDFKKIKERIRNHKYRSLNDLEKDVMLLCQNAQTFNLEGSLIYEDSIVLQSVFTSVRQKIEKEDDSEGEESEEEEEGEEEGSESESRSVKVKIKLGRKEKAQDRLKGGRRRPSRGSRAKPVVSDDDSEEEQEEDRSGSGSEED
Put plainly: HiBiT-BRG1 cell-based degradation assay (Nano-Glo HiBiT Lytic Detection, 24 h). The following applies: stable HeLa cell line expressing HiBit-BRG1 and LgBit, top dose 30 μM, read-out: BRG1 HiBit Degradation Maximum (%). In a few lines:
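HeLa cells stably expressing HiBiT-BRG1 plus LgBiT were treated with 10-point 3-fold compound dilutions (top 30 μM final) for 24 h. Lytic Nano-Glo HiBiT luminescence was read. % degradation was normalised between DMSO (high control) and 2 μM of a reference BRM/BRG1 degrader (low control).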

Results on 16 molecules are retold here after patent publication US12552775B2, “Compounds and uses thereof” (Foghorn Therapeutics Inc., priority 2020, dated 2026).

T1 sequence (P51531 whole entry, the tested form may be a part): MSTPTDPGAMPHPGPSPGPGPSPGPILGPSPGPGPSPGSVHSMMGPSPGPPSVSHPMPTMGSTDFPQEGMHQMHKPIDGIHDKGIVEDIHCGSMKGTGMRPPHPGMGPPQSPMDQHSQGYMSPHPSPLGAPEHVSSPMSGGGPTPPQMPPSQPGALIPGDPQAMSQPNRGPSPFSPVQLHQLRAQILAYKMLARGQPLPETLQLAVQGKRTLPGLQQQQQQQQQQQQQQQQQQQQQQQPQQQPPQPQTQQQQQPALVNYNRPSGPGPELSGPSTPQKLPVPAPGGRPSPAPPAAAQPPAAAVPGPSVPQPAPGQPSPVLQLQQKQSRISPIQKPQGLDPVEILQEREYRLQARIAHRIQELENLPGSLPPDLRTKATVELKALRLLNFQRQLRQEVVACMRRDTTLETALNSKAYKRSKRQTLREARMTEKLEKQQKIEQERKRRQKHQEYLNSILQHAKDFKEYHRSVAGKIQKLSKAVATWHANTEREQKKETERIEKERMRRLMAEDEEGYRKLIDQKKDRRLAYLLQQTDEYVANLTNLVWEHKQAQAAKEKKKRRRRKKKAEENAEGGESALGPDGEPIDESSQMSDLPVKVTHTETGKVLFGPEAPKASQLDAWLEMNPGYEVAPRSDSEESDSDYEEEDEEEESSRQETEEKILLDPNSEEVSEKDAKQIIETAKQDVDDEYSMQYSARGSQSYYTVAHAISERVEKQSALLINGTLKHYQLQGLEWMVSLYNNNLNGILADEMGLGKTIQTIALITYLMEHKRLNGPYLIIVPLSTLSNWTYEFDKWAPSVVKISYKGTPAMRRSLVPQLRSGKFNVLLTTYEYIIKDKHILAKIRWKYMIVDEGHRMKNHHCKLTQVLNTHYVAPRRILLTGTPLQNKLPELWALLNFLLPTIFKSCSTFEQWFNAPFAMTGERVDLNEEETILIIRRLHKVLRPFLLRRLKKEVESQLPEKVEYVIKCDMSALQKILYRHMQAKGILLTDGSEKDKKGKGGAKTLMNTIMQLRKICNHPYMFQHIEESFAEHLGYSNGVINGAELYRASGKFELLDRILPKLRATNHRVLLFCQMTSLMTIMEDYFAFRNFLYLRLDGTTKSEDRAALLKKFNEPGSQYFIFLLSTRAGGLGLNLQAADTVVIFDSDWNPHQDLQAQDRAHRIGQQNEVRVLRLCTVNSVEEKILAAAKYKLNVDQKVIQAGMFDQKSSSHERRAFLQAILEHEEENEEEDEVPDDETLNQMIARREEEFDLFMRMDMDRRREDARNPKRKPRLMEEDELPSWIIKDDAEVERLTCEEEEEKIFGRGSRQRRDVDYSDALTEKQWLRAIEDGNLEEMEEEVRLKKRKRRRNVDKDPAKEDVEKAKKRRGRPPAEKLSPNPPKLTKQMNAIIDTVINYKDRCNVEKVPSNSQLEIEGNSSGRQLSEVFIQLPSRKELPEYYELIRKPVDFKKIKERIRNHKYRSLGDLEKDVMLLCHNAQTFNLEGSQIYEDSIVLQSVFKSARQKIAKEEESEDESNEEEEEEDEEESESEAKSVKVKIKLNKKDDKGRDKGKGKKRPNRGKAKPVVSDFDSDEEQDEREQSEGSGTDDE

Take `Nc1nnc(-c2ccccc2O)cc1OCCC12CC(NC(=O)C3CC3CNC(=O)COc3cccc4c3C(=O)N(C3CCC(=O)NC3=O)C4=O)(C1)C2` (centres unmarked) [Compound 28, N-[3-(2-[[3-amino-6-(2-hydroxyphenyl)pyridazin-4-yl]oxy]ethyl)bicyclo[1.1.1]pentan-1-yl]-2-[(2-[[2-(2,6-dioxopiperidin-3-yl)-1,3-dioxoisoindol-4-yl]oxy]acetamido)methyl]cyclopropane-1-carboxamide]: on HiBit-BRM fusion protein, the “BRM HiBit Degradation Maximum (%)” value was “C (“C” indicates maximum degradation < 50%)”. Further, the Dmax in assay [1] was less than 50%.

Regarding `Nc1nnc(-c2ccccc2O)cc1OCC12CC(C(=O)NCCNc3ccc4c(c3)C(=O)N(C3CCC(=O)NC3=O)C4=O)(C1)C2` (centres unmarked) [Compound 56, 3-(((3-amino-6-(2-hydroxyphenyl)pyridazin-4-yl)oxy)methyl)-N-(2-((2-(2,6-dioxopiperidin-3-yl)-1,3-dioxoisoindolin-5-yl)amino)ethyl)bicyclo[1.1.1]pentane-1-carboxamide], on HiBit-BRM fusion protein, the “BRM HiBit Degradation Maximum (%)” value is on record as “C (“C” indicates maximum degradation < 50%)”. For the same molecule, the Dmax in assay [1] was less than 50%.

Turning to `Nc1nnc(-c2ccccc2O)cc1OCC12CC(C(=O)N3CC4(CCN(CCCNc5ccc6c(c5)C(=O)N(C5CCC(=O)NC5=O)C6=O)CC4)C3)(C1)C2` (centres unmarked) [Compound 98, 5-((3-(2-(3-(((3-amino-6-(2-hydroxyphenyl)pyridazin-4-yl)oxy)methyl)bicyclo[1.1.1]pentane-1-carbonyl)-2,7-diazaspiro[3.5]nonan-7-yl)propyl)amino)-2-(2,6-dioxopiperidin-3-yl)isoindoline-1,3-dione; formic acid], the “BRM HiBit Degradation Maximum (%)” value at HiBit-BRM fusion protein is “B (“B” indicates maximum degradation ≥ 50%)”. Also, the Dmax in assay [1] was less than 50%.

Turning to `Cc1ncsc1-c1ccc(CNC(=O)[C@@H]2C[C@@H](O)CN2C(=O)[C@@H](NC(=O)COCCOCCOCCNC(=O)C23CC(COc4cc(-c5ccccc5O)nnc4N)(C2)C3)C(C)(C)C)cc1` [Compound 69, (2S,4R)-1-((S)-1-(3-(((3-amino-6-(2-hydroxyphenyl)pyridazin-4-yl)oxy)methyl)bicyclo[1.1.1]pentan-1-yl)-15-(tert-butyl)-1,13-dioxo-5,8,11-trioxa-2,14-diazahexadecan-16-oyl)-4-hydroxy-N-(4-(4-methylthiazol-5-yl)benzyl)pyrrolidine-2-carboxamide], the “BRM HiBit Degradation Maximum (%)” value on HiBit-BRM fusion protein is “C (“C” indicates maximum degradation < 50%)”. Also, the Dmax in assay [1] was less than 50%.

With `Nc1nnc(-c2ccccc2O)cc1OCC12CC(C(=O)N3CCC(CCCCN4CCN(c5ccc6c(c5)C(=O)N(C5CCC(=O)NC5=O)C6=O)CC4)CC3)(C1)C2` (centres unmarked) [Compound 95, 5-(4-(4-(1-(3-(((3-amino-6-(2-hydroxyphenyl)pyridazin-4-yl)oxy)methyl)bicyclo[1.1.1]pentane-1-carbonyl)piperidin-4-yl)butyl)piperazin-1-yl)-2-(2,6-dioxopiperidin-3-yl)isoindoline-1,3-dione; formic acid], the “BRM HiBit Degradation Maximum (%)” value at HiBit-BRM fusion protein is on record as “B (“B” indicates maximum degradation ≥ 50%)”. Also, the Dmax in assay [1] was greater than 50%.

For the molecule `Cc1ncsc1-c1ccc(CNC(=O)[C@@H]2C[C@@H](O)CN2C(=O)[C@@H](NC(=O)CCCCCCCCCC(=O)NCC23CC(COc4cc(-c5ccccc5O)nnc4N)(C2)C3)C(C)(C)C)cc1` [Compound 39, N1-((3-(((3-amino-6-(2-hydroxyphenyl)pyridazin-4-yl)oxy)methyl)bicyclo[1.1.1]pentan-1-yl)methyl)-N11-((S)-1-((2S,4R)-4-hydroxy-2-((4-(4-methylthiazol-5-yl)benzyl)carbamoyl)pyrrolidin-1-yl)-3,3-dimethyl-1-oxobutan-2-yl)undecanediamide], at HiBit-BRM fusion protein, the “BRM HiBit Degradation Maximum (%)” value is reported as “B (“B” indicates maximum degradation ≥ 50%)”. In addition, the Dmax in assay [1] was less than 50%.

With `Nc1nnc(-c2ccccc2O)cc1OCC12CC(CNC(=O)CCCCCCCCCCNc3cccc4c3C(=O)N(C3CCC(=O)NC3=O)C4=O)(C1)C2` (centres unmarked) [Compound 8, N-[[3-([[3-amino-6-(2-hydroxyphenyl)pyridazin-4-yl]oxy]methyl)bicyclo[1.1.1]pentan-1-yl]methyl]-11-[[2-(2,6-dioxopiperidin-3-yl)-1,3-dioxoisoindol-4-yl]amino]undecanamide], the “BRM HiBit Degradation Maximum (%)” value at HiBit-BRM fusion protein was “C (“C” indicates maximum degradation < 50%)”. For the same molecule, the Dmax in assay [1] is less than 50%.

On to `Nc1nnc(-c2ccccc2O)cc1OCC12CC(C(=O)NC3CCN(CCOc4ccc5c(c4)C(=O)N(C4CCC(=O)NC4=O)C5=O)CC3)(C1)C2` (centres unmarked) [Compound 80, 3-(((3-amino-6-(2-hydroxyphenyl)pyridazin-4-yl)oxy)methyl)-N-(1-(2-((2-(2,6-dioxopiperidin-3-yl)-1,3-dioxoisoindolin-5-yl)oxy)ethyl)piperidin-4-yl)bicyclo[1.1.1]pentane-1-carboxamide], for which the “BRM HiBit Degradation Maximum (%)” value on HiBit-BRM fusion protein is reported as “C (“C” indicates maximum degradation < 50%)”. Moreover, the Dmax in assay [1] was less than 50%.

As to `Nc1nnc(-c2ccccc2O)cc1OCC12CC(CNC(=O)CCOCCOCCOc3cccc4c3C(=O)N(C3CCC(=O)NC3=O)C4=O)(C1)C2` (centres unmarked) [Compound 14, N-((3-(((3-amino-6-(2-hydroxyphenyl)pyridazin-4-yl)oxy)methyl)bicyclo[1.1.1]pentan-1-yl)methyl)-3-(2-(2-((2-(2,6-dioxopiperidin-3-yl)-1,3-dioxoisoindolin-4-yl)oxy)ethoxy)ethoxy)propanamide], the “BRM HiBit Degradation Maximum (%)” value at HiBit-BRM fusion protein is listed as “C (“C” indicates maximum degradation < 50%)”. The Dmax in assay [1] was less than 50%.

For `Nc1nnc(-c2ccccc2O)cc1OCC12CC(CNC(=O)CCN3CC4(C3)CN(c3ccc5c(c3)C(=O)N(C3CCC(=O)NC3=O)C5=O)C4)(C1)C2` (centres unmarked) [Compound 17, N-((3-(((3-amino-6-(2-hydroxyphenyl)pyridazin-4-yl)oxy)methyl)bicyclo[1.1.1]pentan-1-yl)methyl)-3-(6-(2-(2,6-dioxopiperidin-3-yl)-1,3-dioxoisoindolin-5-yl)-2,6-diazaspiro [3.3]heptan-2-yl)propanamide], at HiBit-BRM fusion protein, the “BRM HiBit Degradation Maximum (%)” value is listed as “C (“C” indicates maximum degradation < 50%)”. Further, the Dmax in assay [1] is less than 50%.

`Nc1nnc(-c2ccccc2O)cc1OCC12CC(C(=O)NCCC3CCN(c4ccc5c(c4)C(=O)N(C4CCC(=O)NC4=O)C5=O)CC3)(C1)C2` (centres unmarked) [Compound 104, 3-(((3-amino-6-(2-hydroxyphenyl)pyridazin-4-yl)oxy)methyl)-N-(2-(1-(2-(2,6-dioxopiperidin-3-yl)-1,3-dioxoisoindolin-5-yl)piperidin-4-yl)ethyl)bicyclo[1.1.1]pentane-1-carboxamide]: the “BRM HiBit Degradation Maximum (%)” value on HiBit-BRM fusion protein was “C (“C” indicates maximum degradation < 50%)”. Moreover, the Dmax in assay [1] was less than 50%.

Turning to `Nc1nnc(-c2ccccc2O)cc1OCC12CC(C(=O)NCCOCCOCCNC(=O)COc3cccc4c3C(=O)N(C3CCC(=O)NC3=O)C4=O)(C1)C2` (centres unmarked) [Compound 90, 3-(((3-amino-6-(2-hydroxyphenyl)pyridazin-4-yl)oxy)methyl)-N-(2-(2-(2-(2-((2-(2,6-dioxopiperidin-3-yl)-1,3-dioxoisoindolin-4-yl)oxy)acetamido)ethoxy)ethoxy)ethyl)bicyclo[1.1.1]pentane-1-carboxamide], the “BRM HiBit Degradation Maximum (%)” value at HiBit-BRM fusion protein was “C (“C” indicates maximum degradation < 50%)”. The Dmax in assay [1] is less than 50%.

`Nc1nnc(-c2ccccc2O)cc1OCC12CC(CNC(=O)C3CCN(CCOc4ccc5c(c4)C(=O)N(C4CCC(=O)NC4=O)C5=O)CC3)(C1)C2` (centres unmarked) [Compound 15, N-((3-(((3-amino-6-(2-hydroxyphenyl)pyridazin-4-yl)oxy)methyl)bicyclo[1.1.1]pentan-1-yl)methyl)-1-(2-((2-(2,6-dioxopiperidin-3-yl)-1,3-dioxoisoindolin-5-yl)oxy)ethyl)piperidine-4-carboxamide]: on HiBit-BRM fusion protein, the “BRM HiBit Degradation Maximum (%)” value is “C (“C” indicates maximum degradation < 50%)”. The Dmax in assay [1] was less than 50%.

Regarding `Nc1nnc(-c2ccccc2O)cc1OCC12CC(C(=O)NCCCCCCCCNc3cccc4c3C(=O)N(C3CCC(=O)NC3=O)C4=O)(C1)C2` (centres unmarked) [Compound 57, 3-(((3-amino-6-(2-hydroxyphenyl)pyridazin-4-yl)oxy)methyl)-N-(8-((2-(2,6-dioxopiperidin-3-yl)-1,3-dioxoisoindolin-4-yl)amino)octyl)bicyclo[1.1.1]pentane-1-carboxamide], at HiBit-BRM fusion protein, the “BRM HiBit Degradation Maximum (%)” value is reported as “C (“C” indicates maximum degradation < 50%)”. In addition, the Dmax in assay [1] was less than 50%.

With `Cc1ncsc1-c1ccc(CNC(=O)[C@@H]2C[C@@H](O)CN2C(=O)[C@@H](NC(=O)CCCCCNC(=O)C23CC(COc4cc(-c5ccccc5O)nnc4N)(C2)C3)C(C)(C)C)cc1` [Compound 70, (2S,4R)-1-((S)-2-(6-(3-(((3-amino-6-(2-hydroxyphenyl)pyridazin-4-yl)oxy)methyl)bicyclo[1.1.1]pentane-1-carboxamido)hexanamido)-3,3-dimethylbutanoyl)-4-hydroxy-N-(4-(4-methylthiazol-5-yl)benzyl)pyrrolidine-2-carboxamide], the “BRM HiBit Degradation Maximum (%)” value on HiBit-BRM fusion protein is reported as “B (“B” indicates maximum degradation ≥ 50%)”. For the same molecule, in assay [1], the Dmax was less than 50%.

Take `Nc1nnc(-c2ccccc2O)cc1OCC12CC(C(=O)NCCCCCCCCNc3ccc4c(c3)C(=O)N(C3CCC(=O)NC3=O)C4=O)(C1)C2` (centres unmarked) [Compound 65, 3-(((3-amino-6-(2-hydroxyphenyl)pyridazin-4-yl)oxy)methyl)-N-(8-((2-(2,6-dioxopiperidin-3-yl)-1,3-dioxoisoindolin-5-yl)amino)octyl)bicyclo[1.1.1]pentane-1-carboxamide]: the “BRM HiBit Degradation Maximum (%)” value at HiBit-BRM fusion protein is “C (“C” indicates maximum degradation < 50%)”. In addition, the Dmax in assay [1] was less than 50%.
